Data set [1] is described as follows: wn = mass fraction of the nth substance listed. The note with it: 101 kPa, Liquid, w2 = 0.
Data set [2] in a line: refractive index (Na D-line) (dimensionless); wn = mass fraction of the nth substance listed. The note with it: 101 kPa, Liquid, w2 = 0.

± gives the expanded uncertainty stated by the source.

What is called viscosity is the internal friction of a fluid under shear. Broadly, the refractive index is the speed of light in vacuum divided by its phase velocity in the sample.

As for `O` [water] + O=C([O-])[C@H](O)[C@@H](O)C(=O)[O-].[Na+].[Na+], the viscosity in data set [1] (298.15 K) stood at 0.89 ± 0.023 mPa·s; in data set [1] (308.15 K) it was 0.729 ± 0.019 mPa·s; in data set [1] (318.15 K), 0.6 ± 0.017 mPa·s. Besides, the refractive index in data set [2] (298.15 K) was 1.3325 ± 0.0007; in data set [2] (308.15 K), 1.3313 ± 0.0007; in data set [2] (318.15 K) it was 1.33 ± 0.0007.

Source of the values: the NIST ThermoML archive (doi:10.1021/je050498q).
